Experimental findings from ChEMBL document CHEMBL1687754, “Chip calorimetry for fast and reliable evaluation of bactericidal and bacteriostatic treatments of biofilms” (2010) are described below.

Molecules are shown by their SMILES. Values after ≈ are worked out from the molar mass of the structure shown. Active and inactive are the calls of the source.

For orientation: MIC means the smallest concentration in the dilution series that meets the test's criterion for growth inhibition.

For experiment [1], the system named is Pseudomonas putida. As to the kind of experiment: Antibacterial activity against Pseudomonas putida PAW340 assessed as decrease in bacterial count at 20 to 150 ug/ml. The class given is functional, organism-based.
Experiment [2] relates to Pseudomonas putida. The experiment is described as follows: Inactivation of Pseudomonas putida PAW340 biofilms assessed as decrease in heat production by Chip calorimetry. In kind it is functional, organism-based.
For experiment [3], the system named is Pseudomonas putida. As to the kind of experiment: Inactivation of Pseudomonas putida PAW340 biofilms assessed as decrease in ATP content at 0.5 mM by Chip calorimetry. In kind it is functional, organism-based.
The subject of experiment [4] is Pseudomonas putida. The experiment is described as follows: Inactivation of Pseudomonas putida PAW340 biofilms assessed as decrease in heat production at 0.5 mM within 1 hr by Chip calorimetry. In kind it is functional. Details: scale not given: the % may be the effect or the level left.
The test system of experiment [5] is Pseudomonas putida. As to the kind of experiment: Inactivation of Pseudomonas putida PAW340 biofilms assessed as decrease in heat production at 0.5 mM by Chip calorimetry. In kind it is functional, organism-based.
Experiment [6] concerns Pseudomonas putida. As to the kind of experiment: Inactivation of Pseudomonas putida PAW340 biofilms assessed as decrease in heat production at 3 to 30 ug/ml by Chip calorimetry. In kind it is functional, organism-based. The note with it: TDE = time-dependent effect.
Experiment [7] has as its system Neisseria gonorrhoeae. The experiment is described as follows: Antibacterial activity against Neisseria gonorrhoeae. The class given is functional.
For experiment [8], the system named is Klebsiella pneumoniae. As to the kind of experiment: Antibacterial activity against Klebsiella pneumoniae. In kind it is functional.
The test system of experiment [9] is Staphylococcus aureus. As to the kind of experiment: Antibacterial activity against Staphylococcus aureus. The class given is functional.
Experiment [10] deals with Pseudomonas aeruginosa. The experiment is described as follows: Antibacterial activity against Pseudomonas aeruginosa. In kind it is functional.
Experiment [11] deals with Pseudomonas putida. As to the kind of experiment: Effect on Pseudomonas putida PAW340 biofilms assessed as heat production at 70 ug/ml by Chip calorimetry. In kind it is functional.
The test system of experiment [12] is Pseudomonas putida. The experiment is described as follows: Effect on Pseudomonas putida PAW340 biofilms assessed as heat production at 250 ug/ml by Chip calorimetry. The class given is functional.
Experiment [13] deals with Escherichia coli. The experiment is described as follows: Antibacterial activity against Escherichia coli. The class given is functional.
Experiment [14] relates to Pseudomonas putida. The experiment is described as follows: Effect on Pseudomonas putida PAW340 biofilms assessed as heat production at 3 ug/ml by Chip calorimetry. In kind it is functional.

Turning to `O=C(O)c1cn(C2CC2)c2cc(N3CCNCC3)c(F)cc2c1=O`, in experiment [1], the outcome was Active. In addition, the Activity entry in [2] was “Dose-dependent effect”.

As for `O=[N+]([O-])c1ccc(O)c([N+](=O)[O-])c1` [2,4-DINITROPHENOL], the outcome in experiment [3] and in [5] was Active. Further, in experiment [4], the Activity is listed as 90%.

Consider `NC[C@H]1O[C@H](O[C@H]2[C@H](O)[C@@H](O[C@H]3O[C@H](CO)[C@@H](O)[C@H](N)[C@H]3O)[C@H](N)C[C@@H]2N)[C@H](O)[C@@H](O)[C@@H]1O` [KANAMYCIN], for which, in experiment [6], the Activity result was “tde”. In [7], this compound registered a minimum inhibitory concentration (MIC) of 2 µg/mL (≈ 4.13 µM).

For `CN(C)[C@@H]1C(O)=C(C(N)=O)C(=O)[C@@]2(O)C(O)=C3C(=O)c4c(O)cccc4[C@@](C)(O)[C@H]3C[C@@H]12` [TETRACYCLINE], the MIC in experiment [8] worked out at 2.5 µg/mL (≈ 5.63 µM); in experiment [9] it was 0.15 µg/mL (≈ 0.338 µM); in experiment [10], 6.25 µg/mL (≈ 14.1 µM); in experiment [13] it was 0.07 µg/mL (≈ 0.158 µM). For the same compound, the Activity stood at 118% in [11], 100% in experiment [12] and 100% in experiment [14].
